For assay [1], the target named is T1, kappa opioid receptor (KOR) (Homo sapiens, UniProt P41145).
T1 construct: host or cells: U2OS (Tango OPRK1-bla U2OS)
The assay can be described thus: OPRKappa 1 Tango B-Arrestin Assay, antagonist mode (Tango OPRK1-bla U2OS cells, U50488 EC80 challenge). It counts as cell-based. To be noted: for Selectivity (MOR/KOR): Kappa selectivity, MOR IC50 / KOR IC50; for pIC50: antagonist mode, Tango OPRK1-bla U2OS cells, 6 nM U50488 challenge. The source says: OPRKappa 1 Tango B-Arrestin Assay Protocol-Antagonist Mode. […] The assay uses Tango OPRK1-bla U2OS cells which express OPRK1 linked to a GAL4-VP16 transcription factor via a TEV protease site. The cells also express a β-arrestin/TEV protease fusion protein and a β-lactamase (BLA) reporter gene under the control of a UAS response element. Stimulation of the OPRK1 receptor by agonist causes migration of the β-arrestin fusion protein to the GPCR, and through proteolysis liberates GAL4-VP16 from the receptor. The liberated VP16-GAL4 migrates to the nucleus, where it induces transcription of the BLA gene. BLA expression is monitored by measuring fluorescence resonance energy transfer (FRET) of a cleavable, fluorogenic, cell-permeable BLA substrate. As designed, test compounds that are OPRK1 antagonists inhibit agonist activation and migration of the fusion protein, thus preventing proteolysis of GAL4-VP16 and BLA transcription, leading to no increase in well FRET. Compounds were tested in quadruplicate using a 10-point, 1:3 dilution series starting at a nominal concentration of 10 micromolar.
The Tango OPRK1-U20S Dividing cell line was routinely cultured in 150 mm dishes at 37C, 5% CO2 and 95% relative humidity (RH).
On Day 1 of the assay, 16,000 cells in 10 μL of assay media (DMEM-Glutamax—with Sodium Pyruvate, 10% fetal bovine serum stripped with charcoal-dextran (CDS), 25 mM HEPES, 0.1 mM non-essential amino acids, antibiotic mix (penicillin streptomycin)) were seeded into each well of a 384 Greiner 788092 black low profile, clear bottom, low volume plate, and incubated 16-24 hours at 37° C., 5% CO2 and 95% (RH).
On Day 2, 50 nL of test compound in DMSO was added to the appropriate wells and plates were incubated for 30 min at 37° C. 5% CO2 and 95% (RH). Next was added 0.65 μL of commercially available U50488 OPRK1 agonist or DMSO in assay media: this EC80 Challenge consists of 0.6 μL of 111 nM U50488 to yield a final assay concentration of 6 nM). After incubation for 4 hours at 37° C., 5% CO2 and 95% (RH), 2.5 μL of LiveBLazer™FRET B/G (CCF4-AM) Mix (Soln.'s A,B,C,&D) was added to each well and incubated at room temperature in the dark for 2 hours. Well fluorescence was measured on Perkin Elmer's Envision using an Excitation filter 409 nm, Emission filters at 460 nm and […], bottom read.
(§1) The Percent Inhibition was calculated from the median ratio as follows:
• Tango™OPRK1-bla U20S Cells (Invitrogen K1576) • McCoy's 5A Medium, (Invitrogen 16600-082) • Dialyzed Fetal Bovine Serum, (Invitrogen 26400-036) • Non Essential Amino Acids 100× (Invitrogen part 11140-050) • HEPES (pH 7.3) 1M, (Invitrogen 15630-080) • Sodium Pyruvate 100× (Invitrogen 11360-070) • Penicillin Streptomycin, (Invitrogen 15640) • Trypsin 0.25% EDTA (Invitrogen 25200056) • DPBS without Calcium/Magnesium (Invitrogen 14190-136) • DMEM, High Glucose, GlutaMAX (Invitrogen 10569-010) • Fetal Bovine Serum, Charcoal Stripped (Invitrogen 12676-011) • DMSO Dry (Sigma D2650) • U50488 OPRK1 Agonist MW410.29 (Tocris 67198-19-0) • GNTI dihydrochloride OPRK1 Antagonist MW571.5 (Tocris 1282) • Nor-Binaltorphimine dihydrochloridc MW770.75 (Tocris 0347)
LiveBLAzere™-FRET/BG Loading Mix: (Invitrogen K1030 (5 mg)), composed of Solutions A, B, C, and D: • Solution A (6 μL): LiveBLAzer™-FRET/BG Substrate (CCF4-AM) • Solution B (60 μL) • Solution C (904 μL) • Solution C (must add 250 μl of 1N NaOH to 45 mL of Solution C prior to use) • Solution D (30 μL) [Probinicid] (Sigma P8161) make 200 mM stock in NaOH—H2O.

The target in another assay is T2, mu opioid receptor (MOR) (Homo sapiens, UniProt P35372).
T2 construct: host or cells: U2OS (Discover X OPRMu1-U2OS, PathHunter)
T2 sequence (P35372 whole entry): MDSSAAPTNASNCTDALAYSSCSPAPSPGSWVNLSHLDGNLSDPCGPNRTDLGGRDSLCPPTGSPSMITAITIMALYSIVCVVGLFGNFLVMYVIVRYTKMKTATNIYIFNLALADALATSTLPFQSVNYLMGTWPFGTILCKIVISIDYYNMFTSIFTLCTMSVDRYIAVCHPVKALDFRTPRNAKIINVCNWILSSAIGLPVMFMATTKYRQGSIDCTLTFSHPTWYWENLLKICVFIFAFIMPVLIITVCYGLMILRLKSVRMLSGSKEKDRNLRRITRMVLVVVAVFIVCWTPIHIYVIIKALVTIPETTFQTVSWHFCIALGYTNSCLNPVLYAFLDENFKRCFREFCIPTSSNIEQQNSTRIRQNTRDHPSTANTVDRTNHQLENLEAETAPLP
The assay can be described thus: OPRMu1 Discover X β-arrestin Assay, antagonist mode (U2OS cells, DAMGO EC80 challenge). It counts as cell-based.
Excerpt: OPRMu1 Discover X—β-arrestin Assay—Antagonist Mode. […] This assay evaluates the OPRMu1 activation in membrane recruitment of β-arrestin. In addition, the assay evaluates GPCR-β-arrestin proximity using low affinity fragment complementation of beta-galactosidase (beta-gal). The assay employs U20S cells, which express OPRMu1 fused to the complementary beta-gal fragment (enzyme acceptor). As designed, compounds that act as antagonists will prevent receptor activation resulting in reduced well luminescence. Compounds were tested in quadruplicate using a 10-point, 1:3 dilution series starting at a nominal concentration of 10 micromolar.
The Discover X OPRMu1-U20S cell line was cultured in 150 mm dishes at 37° C., 5% CO2 and 95% relative humidity (RH).
On Day 1 of the assay, 5000 cells in 20 μL of assay buffer (Discover X's Cell Plating Reagent 5) were seeded into each well of a 384 Corning 3570 standard white plate, and incubated 16-24 hours at 37° C., 5% CO2 and 95% RH.
On Day 2, 100 nL of test compound in DMSO were added to the appropriate wells and the plates were then incubated for 30 min at 37° C. 5% CO2 and 95% RH. Next, 2.2 μL of DAMGO OPRMu1 agonist (commercially available) or DMSO in assay media. (The EC80 Challenge consists of 1.8 μL of 3.7 μM DAMGO, 0.4 μL of Assay Buffer, with a final assay concentration of 303 nM). After incubation for 3 hours at 37° C. 5% CO2, and 95% RH, 10 μL of Path Hunter Detection Mix was added to each well, and the plate was then incubated at room temperature in the dark for 1 hour. Well luminescence was measured on Perkin Elmer's Envision.
as §1
• DMEM Medium, (Invitrogen 11965) • F12 Medium, (Invitrogen 11765) • Heat Inactivated Fetal Bovine Serum, (Invitrogen 10082147) • Non Essential Amino Acids 100× (Invitrogen 11140-050) • HEPES (pH 7.3) 1M, (Invitrogen 15630-080) • Sodium Pyruvate 100× (Invitrogen 11360-070) • Penicillin Streptomycin, (Invitrogen 15640) • Trypsin 0.25% EDTA (Invitrogen 25200056) • DPBS without Calcium/Magnesium (Invitrogen 14190-136) • DMSO Dry (Sigma D2650) • DAMGO OPRMu1 Agonist MW513.19 (Sigma E7384-5MG) • B-Funaltrexamine Hydrochloride OPRM1 Antagonist MW (SIGMA 0003-2MG) • PathHunter Cell Plating 5 Reagent (Discover X 93-0563R5A) • Corning 3750 Standard 384 well white plate with lid.
PathHunter Detection Mix (DiscoverX 93-0001): 1 part Galacton Star/5 parts Emerald II/19 parts PH Cell Assay Buffer.

pIC50: −log10 of the molar value.

T1 sequence (P41145 whole entry): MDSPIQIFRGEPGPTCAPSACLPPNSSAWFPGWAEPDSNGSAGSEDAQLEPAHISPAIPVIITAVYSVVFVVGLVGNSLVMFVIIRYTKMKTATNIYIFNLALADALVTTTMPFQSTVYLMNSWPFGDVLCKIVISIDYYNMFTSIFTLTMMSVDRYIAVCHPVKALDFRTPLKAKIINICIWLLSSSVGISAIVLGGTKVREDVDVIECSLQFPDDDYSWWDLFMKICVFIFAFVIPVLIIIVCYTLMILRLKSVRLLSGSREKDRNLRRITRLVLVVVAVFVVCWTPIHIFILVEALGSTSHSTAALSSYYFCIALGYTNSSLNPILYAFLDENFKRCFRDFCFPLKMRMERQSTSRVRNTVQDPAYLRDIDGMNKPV

With `CCc1cc(-c2ccnn2C)c2nc(N3CCC(N[C@@H]4CCOC[C@@H]4F)CC3)c(-c3ccn(C)n3)c(C)c2c1` [Compound 20, 1-(6-ethyl-4-methyl-3-(1-methyl-1H-pyrazol-3-yl)-8-(1-methyl-1H-pyrazol-5-yl)quinolin-2-yl)-N-((3R,4R)-3-fluorotetrahydro-2H-pyran-4-yl)piperidin-4-amine], in assay [1], the “Selectivity (MOR/KOR)” value is “++ (between 10- and 100-fold selectivity)”; the pIC50 is above 9.00. The molecule also gave a negative-log IC50 (pIC50) against mu opioid receptor (MOR) of 7.00 to 8.00.
Take `CCc1cc(F)c2nc(N3CCN(C(=O)CN(CC)CC)C[C@H]3C)c(-c3cc(C)no3)c(C)c2c1` [Compound 166]: in assay [1], the “Selectivity (MOR/KOR)” value is “+++ (between 100- to 1000-fold selective)” and the pIC50 is 8.00 to 9.00. The molecule further gave a pIC50 at mu opioid receptor (MOR) below 6.00.
`CCc1cc(F)c2nc(N3CCN(C(=O)[C@@H](C)N4CC[C@@H](F)C4)C[C@H]3C)c(-c3nc(C)no3)c(C)c2c1` [Compound 147]: in assay [1], the “Selectivity (MOR/KOR)” value is recorded as “+++ (between 100- to 1000-fold selective)” and the pIC50 is 8.00 to 9.00. At mu opioid receptor (MOR), this molecule gave a pIC50 of 6.00 to 7.00.
Regarding `CCc1cc(F)c2nc(N3CCN(CC4CCOCC4)C[C@H]3CC)c(-c3nc(C)no3)c(C)c2c1` [Compound 34, (R)-5-(6-ethyl-2-(2-ethyl-4-((tetrahydro-2H-pyran-4-yl)methyl)piperazin-1-yl)-8-fluoro-4-methylquinolin-3-yl)-3-methyl-1,2,4-oxadiazole], in assay [1], the “Selectivity (MOR/KOR)” value is “+ (less than 10-fold selectivity)” and the negative logarithm of the IC50 (pIC50) is 7.00 to 8.00. This molecule also showed a pIC50 against mu opioid receptor (MOR) of 6.00 to 7.00.
Consider `CCc1cc(F)c2nc(N3CCN(/C(=N/C#N)NC[C@H](Cc4ccc(O)cc4)N(C)C)C[C@H]3C)c(-c3nc(C)no3)c(C)c2c1` [Compound 48], for which, in assay [1], the “Selectivity (MOR/KOR)” value is “+ (less than 10-fold selectivity)” and the pIC50 was 7.00 to 8.00. The molecule also showed a pIC50 on mu opioid receptor (MOR) of 6.00 to 7.00.
The corresponding values for `CCc1cc(F)c2nc(N3CCN(C(=O)CN(C)C)C[C@H]3C)c(-c3ccn(C)n3)c(C)c2c1` [Compound 171] are “+++ (between 100- to 1000-fold selective)”, 7.00 to 8.00 and below 6.00.
Consider `CCc1cc(F)c2nc(N3CCN(CC4CCOCC4)[C@H](C)C3)c(-c3nc(C)no3)c(C)c2c1` [Compound 39, (R)-5-(6-ethyl-8-fluoro-4-methyl-2-(3-methyl-4-((tetrahydro-2H-pyran-4-yl)methyl)piperazin-1-yl)quinolin-3-yl)-3-methyl-1,2,4-oxadiazole], for which, in assay [1], the “Selectivity (MOR/KOR)” value was “++ (between 10- and 100-fold selectivity)”; the negative logarithm of the IC50 (pIC50) is at most 7.00. Moreover, at mu opioid receptor (MOR), the pIC50 was below 6.00.
As for `Cc1noc(-c2c(N3CCN(CC4CCOCC4)C[C@H]3C)nc3c(F)cc(Cl)cc3c2C)n1` [Compound 50, (R)-5-(6-chloro-8-fluoro-4-methyl-2-(2-methyl-4-((tetrahydro-2H-pyran-4-yl)methyl)piperazin-1-yl)quinolin-3-yl)-3-methyl-1,2,4-oxadiazole], in assay [1], the “Selectivity (MOR/KOR)” value is “++ (between 10- and 100-fold selectivity)”; the pIC50 is at most 7.00. This molecule also had a pIC50 against mu opioid receptor (MOR) below 6.00.
With `CCc1cc(F)c2nc(N3CCC(N[C@H]4COC[C@H]4F)CC3)c(-c3ccn(C)n3)c(C)c2c1` [Compound 72, 1-(6-ethyl-8-fluoro-4-methyl-3-(1-methyl-1H-pyrazol-3-yl)quinolin-2-yl)-N-((3S,4S)-4-fluorotetrahydrofuran-3-yl)piperidin-4-amine], in assay [1], the “Selectivity (MOR/KOR)” value was “++ (between 10- and 100-fold selectivity)”; the pIC50 was 7.00 to 8.00. This molecule also gave a pIC50 against mu opioid receptor (MOR) below 6.00.
For `CCc1cc(F)c2nc(N3CC[C@H](N[C@@H]4CCOC4)C[C@H]3C)c(-c3cc(C)no3)c(C)c2c1` [Compound 140], in assay [1], the “Selectivity (MOR/KOR)” value is reported as “+++ (between 100- to 1000-fold selective)” and the pIC50 was above 9.00. For the same molecule, the pIC50 at mu opioid receptor (MOR) is 6.00 to 7.00.
Take `CCc1cc(F)c2nc(N3CCN([C@H]4CCOC4)C[C@H]3C)c(-c3nc(C)no3)c(C)c2c1` [Compound 33]: in assay [1], the “Selectivity (MOR/KOR)” value was “+++ (between 100- to 1000-fold selective)”. Moreover, the values for the negative logarithm of the IC50 (pIC50) (in assay [1]; at mu opioid receptor (MOR)) were 8.00 to 9.00 and below 6.00, respectively.
Consider `CCc1cc(F)c2nc(N3CCN(CC4CCOCC4)C[C@H]3C)c(-c3ccn(C)n3)c(C)c2c1` [Compound 2, (R)-6-ethyl-8-fluoro-4-methyl-3-(1-methyl-1H-pyrazol-3-yl)-2-(2-methyl-4-((tetrahydro-2H-pyran-4-yl)methyl)piperazin-1-yl)quinoline], for which, in assay [1], the “Selectivity (MOR/KOR)” value is reported as “+++ (between 100- to 1000-fold selective)”. The negative-log IC50 (pIC50) is 8.00 to 9.00 in assay [1] and below 6.00 against mu opioid receptor (MOR).
The corresponding values for `CCc1cc(-c2ccnn2C)c2nc(N3CCNC4CC43)c(-c3ccn(C)n3)c(C)c2c1` (stereo not drawn) [Compound 24, 2-(2,5-diazabicyclo[4.1.0]heptan-2-yl)-6-ethyl-4-methyl-3-(1-methyl-1H-pyrazol-3-yl)-8-(1-methyl-1H-pyrazol-5-yl)quinoline] are “+ (less than 10-fold selectivity)”, at most 7.00 and below 6.00.

These data come from US20260115185A1, “QUINOLINE DERIVATIVES WHICH ACT AS KAPPA-OPIOID RECEPTOR ANTAGONISTS” (The Scripps Research Institute, priority 2023, published 2026).
